Results published in patent EP2313424B1, “ANIONIC PREGNANE COMPOUNDS, METHOD FOR THEIR PRODUCING AND USE OF THEM” (Ústav organické chemie a biochemie Akademie ved Ceské …, priority 2008, dated 2010).
Read-outs that look alike come from different tables or passages of the source.

System: NMDA receptor
Test: Whole-cell voltage-clamp recording of NMDA-induced currents in cultured hippocampal neurons
Format: cell-based, rats
Conditions: for IC50: estimated from relative inhibition at 100 µM steroid with the logistic equation, apparent Hill coefficient 1.2, 100 µM NMDA; for mean inhibitory effect on NMDA-induced currents: 100 µM steroid, responses elicited by 100 µM NMDA
[1] = relative degree of inhibition by 100 µM steroid of current responses induced by fast application of 100 µM NMDA, cultured hippocampal neurons, holding potential -60 mV
[2] = cultured hippocampal neurons, holding potential -60 mV

Compound | Inhibition (X) | IC50 (cultured hippocampal neurons) | Inhibition (X) [1] | mean inhibitory effect on NMDA-induced currents [2] | mean inhibitory effect on NMDA-induced currents (cultured hippocampal neurons, holding potential -60 mV, listed as 5β-pregnenolone sulfate)
20-Oxo-5α-pregnane-3α,7α-diyl 3-Sulfate 7-Acetate Pyridinium Salt [Example 4] | 35.2 | 167 µM |  |  | 
20-Oxo-5α-pregnane-3α,7α-diyl 3-Sulfate 7-Nicotinate Pyridinium Salt [Example 10] |  | 154 µM | 37.8 |  | 
20-Oxo-5β-pregnan-3α,7α-diyl 3-Sulfate 7-Acetate Pyridinium Salt [Example 13] |  | 186 µM | 34.1 |  | 
20-Oxo-5β-pregnane-3α,7α-diyl 3-Sulfate 7-Nicotinate Pyridinium Salt [Example 19] |  | 116 µM | 46.9 |  | 
CC(=O)O[C@@H]1C[C@H]2C[C@H](OC(=O)CCC(=O)O)CC[C@]2(C)[C@H]2CC[C@]3(C)[C@@H](C(C)=O)CC[C@H]3[C@H]12 [Example 3, 20-Oxo-5α-pregnane-3α,7α-diyl 3-Hemisuccinate 7-Acetate] |  | 384 µM | 17.4 |  | 
CC(=O)O[C@@H]1C[C@H]2C[C@H](OS(=O)(=O)[O-])CC[C@]2(C)[C@H]2CC[C@]3(C)[C@@H](C(C)=O)CC[C@H]3[C@H]12.[Na+] [Example 5, 20-Oxo-5α-pregnan-3α,7α-diyl 3-Sulfate 7-Acetate Sodium Salt] |  |  |  | 17% | 
CC(=O)O[C@@H]1C[C@@H]2C[C@H](OC(=O)CCC(=O)O)CC[C@]2(C)[C@H]2CC[C@]3(C)[C@@H](C(C)=O)CC[C@H]3[C@H]12 [Example 12, 20-Oxo-5β-pregnane-3α,7α-diyl 3-Hemisuccinate 7-Acetate] |  | 300 µM | 21.4 |  | 
pregnanolone sulfate [reference compound] |  |  |  | 71.3 ± 5.0% | 71%
